Patent US10793563B2, “GCN2 inhibitors and uses thereof” (Merck Patent GmbH, priority 2018, dated 2020)
Read-outs that look alike come from different tables or passages of the source.

Assays:
[1] = target: GCN2 kinase (Homo sapiens (Human), UniProt Q9P2K8); assay: GCN2 Enzyme Inhibition Assay (Transcreener ADP2 fluorescence polarization); type: biochemical; details: 280 μM ATP, 200 μM (RS)7 peptide, 4 nM GCN2, 25° C.
Method in brief: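 At 25 °C, GCN2 kinase (typical final concentration 4 nM) and (RS)7 peptide in Tris-HCl pH 7.5 buffer with MgCl2, NaCl and DTT were preincubated with compound for 10 min, then ATP was added for a 1 h reaction. ADP was read by FP with antibody/Alexa633 tracer. Non-linear tight-binding analysis gave IC50 and apparent Ki.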

[2] = target: intracellular GCN2 (phosphorylation of the GCN2 substrate eIF2α) (Homo sapiens (Human), UniProt Q9P2K8); assay: GCN2 Cellular Inhibition Assay (AlphaScreen SureFire P-eIF2α Ser51, borrelidin-treated U2OS cells); type: cell-based; details: 10 μM borrelidin, 1 h, phosphorylated eIF2α Ser51, read-out: GCN2 Biomarker (IC50)
Method in brief: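 Phospho-eIF2α (Ser51) measured by AlphaScreen SureFire in lysates of U2OS cells stimulated 1 h at 37 °C with 10 μM borrelidin alongside compound, 4-fold dilutions from 40 μM. Inhibition expressed as percent relative to borrelidin-alone controls.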

[3] = test system: primary human pan T-cells; assay: Human IL-2 Assay for GCN2 Inhibition (IL-2 secretion from T cells in low amino acid condition); type: cell-based; details: IL-2 secretion from human T cells stimulated with anti-CD3/CD28 in low amino acid condition, ELISA, read-out: IL2/T-cell EC50
Text: Tumor microenvironment is profoundly immuno-suppressive. This may be attributed to the depletion of amino acids (like arginine and tryptophan) which triggers the activation of GCN2 in immune cells, including T cell and myeloid cells. In T cells, activation of GCN2 leads to reduce effector functions of CD8 T cells and induction and/or maintenance of immuno-suppressive T-regs. Inhibition of that immuno-suppressive response by GCN2 inhibitors enables an anti-cancer immune response by activating effector T-cells. Herein we describe an in-vitro system we established using human T-cells stimulated in low amino acid condition in order to engage the GCN2 biology. The method described involves the modulation of IL-2 levels secreted by human T cells in responses to the GCN2 inhibitors disclosed herein.
Amino acid-free RPMI was reconstituted with all but one of the amino acids found in standard RMPI (e.g. Arginine, Tryptophan), 10% charcoal-stripped fetal bovine serum, 100 Units/mL penicillin and 0.1 mg/mL streptomycin. Primary human pan T-cells were isolated using Pan T Cell Isolation Kit, human (MACS Miltenyi biotech Cat # Order no. 130-096-535) from apheresis cones and 5×104 pan T-cells per well. The purified T cells are seeded in Nunc™ 96-Well Polystyrene Round Bottom Microwell Plates (the cells are rested in No TRP media in a 15 ml falcon tube in the incubator for 30-45 minutes while titrations for tryptophan and the GCN2 inhibitor compound are made) A plate matrix was developed to titrate both a GCN2 inhibitor and the amino acid of interest ranging from “No Amino Acid” condition, up to the concentration found in the regular RPMI media (20 μM for TRP and 950 μM for Arginine). The cells were incubated for 30 min at 37° C. with the GCN2 inhibitor and then stimulated with 5×104 anti-CD3/CD28 Dynabeads® per well. After 96 hours of incubation the IL-2 level in the supernatant were measured using ELISA (R&D systems Cat # DY202 (Human IL-2 DuoSet ELISA). Data were plotted in GraphPad Prism software and EC50 is calculated.

Chain of GCN2 kinase (Q9P2K8 whole entry): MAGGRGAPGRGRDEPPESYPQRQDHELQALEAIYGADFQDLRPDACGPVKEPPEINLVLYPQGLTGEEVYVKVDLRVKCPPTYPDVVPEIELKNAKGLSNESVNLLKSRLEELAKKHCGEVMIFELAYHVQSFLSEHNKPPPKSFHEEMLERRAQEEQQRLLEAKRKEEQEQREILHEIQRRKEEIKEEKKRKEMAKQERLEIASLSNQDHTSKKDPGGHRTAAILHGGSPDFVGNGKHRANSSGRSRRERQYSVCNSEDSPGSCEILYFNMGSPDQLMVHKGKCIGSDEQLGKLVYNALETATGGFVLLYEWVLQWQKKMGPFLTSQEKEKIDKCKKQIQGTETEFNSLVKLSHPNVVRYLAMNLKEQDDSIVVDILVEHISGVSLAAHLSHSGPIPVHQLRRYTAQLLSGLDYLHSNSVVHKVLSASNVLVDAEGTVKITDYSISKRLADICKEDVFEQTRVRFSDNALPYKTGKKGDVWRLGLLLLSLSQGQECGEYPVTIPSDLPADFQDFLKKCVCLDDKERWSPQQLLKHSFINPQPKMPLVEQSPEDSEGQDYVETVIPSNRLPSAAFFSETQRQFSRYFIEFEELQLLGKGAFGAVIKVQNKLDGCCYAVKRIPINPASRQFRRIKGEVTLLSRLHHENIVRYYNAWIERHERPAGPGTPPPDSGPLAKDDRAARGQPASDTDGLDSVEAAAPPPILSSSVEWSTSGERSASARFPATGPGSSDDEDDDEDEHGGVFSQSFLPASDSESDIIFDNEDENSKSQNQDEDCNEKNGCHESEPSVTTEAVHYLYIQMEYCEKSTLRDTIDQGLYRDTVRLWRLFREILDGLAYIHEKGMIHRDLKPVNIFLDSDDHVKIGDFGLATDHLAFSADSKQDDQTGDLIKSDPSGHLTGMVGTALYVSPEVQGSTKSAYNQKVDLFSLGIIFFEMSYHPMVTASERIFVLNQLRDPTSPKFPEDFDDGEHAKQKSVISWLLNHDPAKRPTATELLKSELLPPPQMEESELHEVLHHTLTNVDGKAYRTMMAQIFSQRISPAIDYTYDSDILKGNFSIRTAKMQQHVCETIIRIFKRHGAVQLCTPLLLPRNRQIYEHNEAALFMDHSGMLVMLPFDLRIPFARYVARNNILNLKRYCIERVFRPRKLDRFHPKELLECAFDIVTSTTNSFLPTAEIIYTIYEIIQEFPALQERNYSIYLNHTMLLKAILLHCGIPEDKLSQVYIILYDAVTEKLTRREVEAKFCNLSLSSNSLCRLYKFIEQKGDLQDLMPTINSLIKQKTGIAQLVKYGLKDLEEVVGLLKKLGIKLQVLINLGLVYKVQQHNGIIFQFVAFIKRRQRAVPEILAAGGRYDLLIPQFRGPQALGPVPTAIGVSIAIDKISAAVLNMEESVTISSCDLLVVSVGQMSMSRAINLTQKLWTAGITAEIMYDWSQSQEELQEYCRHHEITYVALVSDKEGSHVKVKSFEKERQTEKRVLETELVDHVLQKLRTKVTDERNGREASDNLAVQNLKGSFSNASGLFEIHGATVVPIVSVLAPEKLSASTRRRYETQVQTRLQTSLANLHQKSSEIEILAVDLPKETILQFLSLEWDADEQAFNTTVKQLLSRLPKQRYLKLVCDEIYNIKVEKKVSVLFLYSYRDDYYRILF
Chain of intracellular GCN2 (phosphorylation of the GCN2 substrate eIF2α) (Q9P2K8 whole entry): as above

SMILES | IC50 [1] [nM] | IC50 [2] [nM] | EC50 ([3]; Homo sapiens, T-cell, 96 h) [nM] | EC50 ([3]; 96 hours) [nM]
C[C@@H]1C[C@H](c2cn[nH]c2)CN(c2nccc(-c3cnc4ccc(C5CC5)cn34)n2)C1 [I-249, 6-Cyclopropyl-3-{2-[(3R,5R)-3-methyl-5-(1H-pyrazol-4-yl)-piperidin-1-yl]-pyrimidin-4-yl}-imidazo[1,2-a]pyridine] | < 10 | < 500 | 100 to 500 | 
Cc1n[nH]cc1C1CN(c2nccc(-c3cnc4ccc(Cl)cn34)n2)CC(C)O1 (centres unmarked) [I-160, 4-(4-(6-chloroimidazo[1,2-a]pyridin-3-yl)pyrimidin-2-yl)-2-methyl-6-(3-methyl-1H-pyrazol-4-yl)morpholine] | < 10 |  | 100 to 500 | 
C[C@H]1CN(c2nccc(-c3cnc4ccc(C(F)(F)F)cn34)n2)C[C@@H](c2cn[nH]c2)O1 [I-126, (2S,6R)-2-methyl-6-(1H-pyrazol-4-yl)-4-{4-[6-(trifluoromethyl)imidazo[1,2-a]pyridin-3-yl]pyrimidin-2-yl}morpholine] | < 10 | < 500 | 100 to 500 | 
C[C@H]1C[C@@H](C(N)=O)CN(c2ccnc(-c3cnc4ccc(C(F)(F)F)cn34)n2)C1 [I-148, (3R,5S)-5-methyl-1-(2-(6-(trifluoromethyl)imidazo[1,2-a]pyridin-3-yl)pyrimidin-4-yl)piperidine-3-carboxamide] | < 10 | < 500 | 100 to 500 | 
NC(=O)[C@H]1CN(c2ccnc(-c3cnc4ccc(C(F)(F)F)cn34)n2)CCN1C1CC1 [I-323, (R)-1-cyclopropyl-4-(2-(6-(trifluoromethyl)imidazo[1,2-a]pyridin-3-yl)pyrimidin-4-yl)piperazine-2-carboxamide] | < 10 | 500 to 5000 | > 500 | 
Cc1n[nH]nc1[C@@H]1C[C@H](C)CN(c2ccnc(-c3cnc4ccc(C(F)(F)F)cn34)n2)C1 [I-409, 3-(4-((3S,5R)-3-methyl-5-(5-methyl-2H-1,2,3-triazol-4-yl)piperidin-1-yl)pyrimidin-2-yl)-6-(trifluoromethyl)imidazo[1,2-a]pyridine] | 10 to 100 | < 500 | > 500 | 
CC1CC1CN1CCN(c2ccnc(-c3cnc4ccc(C(F)(F)F)cn34)n2)CC1c1cn[nH]c1 (centres unmarked) [I-473, 3-(4-(4-((2-methylcyclopropyl)methyl)-3-(1H-pyrazol-4-yl)piperazin-1-yl)pyrimidin-2-yl)-6-(trifluoromethyl)imidazo[1,2-a]pyridine] | < 10 | < 500 | 100 to 500 | 
Cc1[nH]ncc1[C@@H]1CN(c2ccnc(-c3cnc4ccc(C(F)(F)F)cn34)n2)C[C@H](C)O1 [I-124, 3-{4-[(2S,6R)-2-Methyl-6-(3-methyl-1H-pyrazol-4-yl)-morpholin-4-yl]-pyrimidin-2-yl}-6-trifluoromethyl-imidazo[1,2-a]pyridine] | < 10 | < 500 | 100 to 500 | < 100
CS(=O)(=O)C1CC(N2CCN(c3ccnc(-c4cnc5ccc(C(F)(F)F)cn45)n3)C[C@@H]2c2cn[nH]c2)C1 (stereo partly drawn) [I-495, 3-{4-[(S)-4-(3-Methanesulfonyl-cyclobutyl)-3-(1H-pyrazol-4-yl)-piperazin-1-yl]-pyrimidin-2-yl}-6-trifluoromethyl-imidazo[1,2-a]pyridine] | < 10 | < 500 | > 500 | 
NC(=O)[C@@H]1CCCN(c2ncc(F)c(-c3cnc4ccc(C(F)(F)F)cn34)n2)C1 [I-223, (R)-1-(5-fluoro-4-(6-(trifluoromethyl)imidazo[1,2-a]pyridin-3-yl)pyrimidin-2-yl)piperidine-3-carboxamide] | < 10 | < 500 | 100 to 500 | 
Cc1cc(-c2cnc3ccc(Cl)cn23)nc(N2C[C@H](C)C[C@H](c3cn[nH]c3)C2)n1 [I-209, 6-chloro-3-(6-methyl-2-((3R,5R)-3-methyl-5-(1H-pyrazol-4-yl)piperidin-1-yl)pyrimidin-4-yl)imidazo[1,2-a]pyridine] | 10 to 100 | < 500 | 100 to 500 | 
C[C@H]1CN(c2nccc(-c3cnc4ccc(C(F)(F)F)cn34)n2)[C@@H](C)C(c2cn[nH]c2)N1 (stereo partly drawn) [I-170, 3-(2-((2S,5S)-2,5-dimethyl-3-(1H-pyrazol-4-yl)piperazin-1-yl)pyrimidin-4-yl)-6-(trifluoromethyl)imidazo[1,2-a]pyridine] | 10 to 100 | < 500 | 100 to 500 | 
C[C@H]1CN(c2ccnc(-c3cnc4ccc(C(F)(F)F)cn34)n2)C[C@@H](C(N)=O)O1 [I-562, (2S,6S)-6-methyl-4-(2-(6-(trifluoromethyl)imidazo[1,2-a]pyridin-3-yl)pyrimidin-4-yl)morpholine-2-carboxamide] |  |  | 100 to 500 | 
C[C@H]1C[C@@H](c2cn[nH]c2)CN(c2nccc(-c3cnc4ccc(C(F)(F)F)cn34)n2)C1 [I-137, 3-(2-((3S,5S)-3-Methyl-5-(1H-pyrazol-4-yl)piperidin-1-yl)pyrimidin-4-yl)-6-(trifluoromethyl)imidazo[1,2-a]pyridine] |  | < 500 | 100 to 500 | 

More lines, now with the values ahead:

IC50 [1] [nM] | IC50 [2] [nM] | EC50 ([3]; Homo sapiens, T-cell, 96 h) [nM] | EC50 ([3]; 96 hours) [nM] | SMILES
10 to 100 | < 500 | > 500 |  | C[C@H]1C[C@@H](N=S(C)(C)=O)CN(c2ccnc(-c3cnc4ccc(Cl)cn34)n2)C1 (stereo in doubt) [I-128, (((3R,5S)-1-(2-(6-chloroimidazo[1,2-a]pyridin-3-yl)pyrimidin-4-yl)-5-methylpiperidin-3-yl)imino)dimethyl-λ6-sulfanone]
< 10 | < 500 | 100 to 500 |  | C[C@@H]1CN(c2nccc(-c3cnc4ccc(Cl)cn34)n2)C[C@H](c2cn[nH]c2)O1 [I-248, 6-Chloro-3-{2-[(2R,6S)-2-methyl-6-(1H-pyrazol-4-yl)-morpholin-4-yl]-pyrimidin-4-yl}-imidazo[1,2-a]pyridine]
< 10 | < 500 | < 100 |  | Cc1[nH]ncc1[C@H]1[C@@H](C)N(c2ccnc(-c3cnc4ccc(C(F)(F)F)cn34)n2)CCN1C1COC1 [I-366]
 | 500 to 5000 | < 100 |  | Cc1[nH]ncc1[C@@H]1CN(c2nccc(-c3cnc4ccc(C(F)(F)F)cn34)n2)C[C@H](C)O1 [I-116]
10 to 100 |  | > 500 |  | C[C@H]1[C@H](c2cn[nH]c2)N(CC2(C)COC2)CCN1c1ccnc(-c2cnc3ccc(C(F)(F)F)cn23)n1 [I-482, 3-(4-((2 S,3 S)-2-methyl-4-((3-methyloxetan-3-yl)methyl)-3-(1H-pyrazol-4-yl)piperazin-1-yl)pyrimidin-2-yl)-6-(trifluoromethyl)imidazo[1,2-a]pyridine]
 | < 500 | < 100 | 100 to 500 | C[C@@H]1C[C@H](c2cn[nH]c2)CN(c2nccc(-c3cnc4ccc(C(F)(F)F)cn34)n2)C1 [I-136, 3-(2-((3R,5R)-3-Methyl-5-(1H-pyrazol-4-yl)piperidin-1-yl)pyrimidin-4-yl)-6-(trifluoromethyl)imidazo[1,2-a]pyridine]
 |  | < 100 |  | C[C@@H]1[C@H](c2cn[nH]c2)N(C2COC2)CCN1c1ccnc(-c2cnc3ccc(C(F)(F)F)cn23)n1 [I-565, 3-(4-((2R,3 S)-2-methyl-4-(oxetan-3-yl)-3-(1H-pyrazol-4-yl)piperazin-1-yl)pyrimidin-2-yl)-6-(trifluoromethyl)imidazo[1,2-a]pyridine]
